Reference: ChEMBL document CHEMBL1136462, “The effect of remote chirality on the antibacterial activity of indolinyl, tetrahydroquinolyl and dihydrobenzoxazinyl oxazolidinones” (Bioorg Med Chem Lett, 2003)
Converted amounts (≈) assume the structure as drawn.

Key:
Staphylococcus aureus [1] = experiment: In vitro antibacterial activity against Staphylococcus aureus UC12673 (SA2); type: functional
Staphylococcus aureus [2] = experiment: In vitro antibacterial activity against methicillin susceptible Staphylococcus aureus UC19213 (MSSA); (SA1); type: functional
Moraxella catarrhalis = experiment: In vitro antibacterial activity against Moraxella catarrhalis 30607 (b-lactamase+).; type: functional
[3] = Maximum plasma concentration (Cmax) of compound (19.76 mg/kg) after po administration was determined Sprague-Dawley rat; type: ADME, organism-based; design: dose 19.76 mg/kg, route oral
Enterococcus faecalis = experiment: In vitro antibacterial activity against vancomycin susceptible Enterococcus faecalis UC19217 (VSEF); type: functional
Rattus norvegicus [4] = experiment: Half life of compound (9.84 mg/kg) after iv administration was determined in Sprague-Dawley rat; type: ADME, organism-based; conditions: in vivo
[5] = tested on: Staphylococcus epidermidis; experiment: In vitro antibacterial activity against methicillin resistant Staphylococcus epidermis US 12084 (MRSE); type: functional
[6] = Oral bioavailability of compound (19.76 mg/kg) after po administration was determined in Sprague-Dawley rat; type: ADME, organism-based; conditions: in vivo
[7] = Half life of compound (9.84 mg/kg) after po administration was determined in Sprague-Dawley rat; type: ADME, organism-based; conditions: in vivo
Streptococcus pneumoniae = experiment: In vitro antibacterial activity against penicillin susceptible Streptococcus pneumoniae UC19912 (PSSP); type: functional
[8] = Maximum plasma concentration (Cmax) of compound (9.84 mg/kg) after iv administration was determined Sprague-Dawley rat; type: ADME, organism-based; design: dose 9.84 mg/kg, route intravenous
[9] = Tmax of compound (19.76 mg/kg) after po administration was determined in Sprague-Dawley rat; type: ADME, organism-based; conditions: in vivo
Haemophilus influenzae = experiment: In vitro antibacterial activity against ampicillin resistant Haemophilus influenzae 30063 (AMPR b-lactamase+); type: functional
Rattus norvegicus [10] = experiment: Steady state volume distribution (Vss) of compound(9.84 mg/kg) after iv administration was determined in Sprague-Dawley rat; type: ADME, organism-based; conditions: in vivo
Rattus norvegicus [11] = experiment: Clearance (Cl) of compound (9.84 mg/kg) after iv administration was determined in Sprague-Dawley rat; type: ADME, organism-based; conditions: in vivo
Mus musculus [12] = experiment: In vivo efficacy of compound to protect the Staphylococcus aureus UC9213 infected mouse from death after po administration; type: functional
[13] = Maximum plasma concentration (Cmax) of compound (9.92 mg/kg) after iv administration was determined Sprague-Dawley rat; type: ADME, organism-based; design: dose 9.92 mg/kg, route intravenous
[14] = Clearance (Cl) of compound (9.92 mg/kg) after iv administration was determined in Sprague-Dawley rat; type: ADME, organism-based; conditions: in vivo
[15] = Steady state volume distribution (Vss) of compound after iv administration was determined in Sprague-Dawley rat; type: ADME, organism-based; conditions: in vivo, read-out: Vss
[16] = Oral bioavailability of compound (20.73 mg/kg) after po administration was determined in Sprague-Dawley rat; type: ADME, organism-based; conditions: in vivo
[17] = Maximum plasma concentration (Cmax) of compound (20.73 mg/kg) after po administration was determined Sprague-Dawley rat; type: ADME, organism-based; design: dose 20.73 mg/kg, route oral
[18] = Half life of compound (20.73 mg/kg) after po administration was determined in Sprague-Dawley rat; type: ADME, organism-based; conditions: in vivo
[19] = Half life of compound (9.92 mg/kg) after iv administration was determined in Sprague-Dawley rat; type: ADME, organism-based; conditions: in vivo
[20] = Tmax of compound (20.73 mg/kg) after po administration was determined in Sprague-Dawley rat; type: ADME, organism-based; conditions: in vivo
[21] = Clearance (Cl) of compound (10 mg/kg) after iv administration was determined in Sprague-Dawley rat; type: ADME, organism-based; conditions: in vivo
[22] = Tmax of compound (25 mg/kg) after po administration was determined in Sprague-Dawley rat; type: ADME, organism-based; conditions: in vivo
[23] = Maximum plasma concentration (Cmax) of compound (25 mg/kg) after po administration was determined Sprague-Dawley rat; type: ADME, organism-based; design: dose 25 mg/kg, route oral
Mus musculus [24] = experiment: In vivo efficacy of compound to protect the Staphylococcus aureus UC9213 infected mouse from death after sc administration; type: functional

Compound | MIC (Staphylococcus aureus [1]) [µg/mL] | MIC (Staphylococcus aureus [2]) [µg/mL] | MIC (Moraxella catarrhalis) [µg/mL] | MIC (Enterococcus faecalis) [µg/mL] | MIC [5] [µg/mL] | MIC (Streptococcus pneumoniae) [µg/mL] | MIC (Haemophilus influenzae) [µg/mL] | also measured
CC(=O)NC[C@H]1CN(c2ccc3c(c2)C[C@@H](C)N3C=O)C(=O)O1 | 1 (≈ 3.15 µM) | 1 (≈ 3.15 µM) | 4 (≈ 12.6 µM) | 1 (≈ 3.15 µM) | < 0.5 | < 0.5 | 8 (≈ 25.2 µM) | Cmax [3]: 7200 ng/mL; T1/2 (Rattus norvegicus [4]): 1.7 h; bioavailability [6]: 56%; half-life [7]: 48 min; Cmax [8]: 16100 ng/mL; Tmax [9]: 30 min; Vss (Rattus norvegicus [10]): 1.27 L/kg; CL (Rattus norvegicus [11]): 1.84 mL/min/kg
CC(=O)NC[C@H]1CN(c2ccc3c(c2)OC[C@@H](C)N3C=O)C(=O)O1 | 2 (≈ 6 µM) | 4 (≈ 12 µM) | 8 (≈ 24 µM) | 4 (≈ 12 µM) | < 1 | < 1 | 64 (≈ 192 µM) | 
C/C(S)=N/C[C@H]1CN(c2ccc3c(c2)C[C@H](C)N3C=O)C(=O)O1 | 2 (≈ 6 µM) | 2 (≈ 6 µM) | 16 (≈ 48 µM) | 2 (≈ 6 µM) | 1 (≈ 3 µM) | < 0.5 | 32 (≈ 96 µM) | 
CC(=O)NC[C@H]1CN(c2ccc3c(c2)C[C@@H](C)N3C(=O)CO)C(=O)O1 | 2 (≈ 5.76 µM) | 4 (≈ 11.5 µM) | 8 (≈ 23 µM) | 2 (≈ 5.76 µM) | 0.5 (≈ 1.44 µM) | 0.5 (≈ 1.44 µM) | 8 (≈ 23 µM) | ED50 (Mus musculus [12]): 1.8 mg/kg; Cmax [13]: 15100 ng/mL; clearance [14]: 24 mL/min/kg; Vd [15]: 1.28 L/kg; bioavailability [16]: 55.4%; Cmax [17]: 3800 ng/mL; half-life [18]: 168 min; half-life [19]: 108 min; Tmax [20]: 30 min
CC(=O)NC[C@H]1CN(c2ccc3c(c2)CC[C@H](C)N3C=O)C(=O)O1 | 4 (≈ 12.1 µM) | 8 (≈ 24.1 µM) | 16 (≈ 48.3 µM) | 8 (≈ 24.1 µM) | < 2 | < 2 | 64 (≈ 193 µM) | 
C/C(S)=N/C[C@H]1CN(c2ccc3c(c2)C[C@@H](C)N3C(=O)CO)C(=O)O1 | < 0.5 | < 0.5 | 2 (≈ 5.5 µM) | < 0.5 | < 0.5 | < 0.5 | 8 (≈ 22 µM) | 
C/C(S)=N/C[C@H]1CN(c2ccc3c(c2)CC[C@H](C)N3C=O)C(=O)O1 | 1 (≈ 2.88 µM) | 1 (≈ 2.88 µM) | 2 (≈ 5.76 µM) | 2 (≈ 5.76 µM) | < 0.5 | < 0.5 | 16 (≈ 46.1 µM) | 
C/C(S)=N/C[C@H]1CN(c2ccc3c(c2)CC[C@@H](C)N3C=O)C(=O)O1 | < 0.5 | < 0.5 | 1 (≈ 2.88 µM) | < 0.5 | < 0.5 | < 0.5 | 4 (≈ 11.5 µM) | 
CC(=O)NC[C@H]1CN(c2ccc(N3CCOCC3)c(F)c2)C(=O)O1 [LINEZOLID] |  |  | 8 (≈ 23.7 µM) |  | < 1 | < 0.5 | 16 (≈ 47.4 µM) | clearance [21]: 10.5 mL/min/kg; Tmax [22]: 18 min; Cmax [23]: 15800 ng/mL; ED50 (Mus musculus [24]): 5.6 mg/kg
